Entries after “also recorded” stand apart in the source; their conditions may differ. Ends that are not written are not given here.
Columns and labels:
[1] = RP-UPLC retention time, used as measure of peptide hydrophobicity; type: physicochemical; conditions: RP-UPLC-MS; chromatographic
Experimental: Peptide synthesis was carried out using the conventional solid-phase peptide synthesis procedure (see supplementary information). The synthesized peptides were purified using RP-HPLC. The purity and molecular weight of each peptide were confirmed using RP-UPLC-MS (Table S1 and Fig. S1). […]
Retention times of each peptide were determined by RP-UPLC-MS.

[2] = Colorimetric (xylenol orange) determination of Cd^2+ removal by peptide coacervation; conditions: peptide 1.0 mg/mL; for Concentration of metal ion in the supernatant: Cd^2+ (0.236 mM CdCl2), Tris-HCl (50.0 mM Tris, 599 mM NaCl, pH 8.0), at least three measurements; for Concentration of metal ion in the supernatant / Removal efficiency: mean ± SE; for Removal efficiency: Cd^2+, versus control without peptide
Experimental: (§1) Colorimetric analyses of cadmium ions (Cd^2+) were carried out to evaluate the number of metal ions absorbed into the coacervation phase of the peptides by using a spectral photometer (JASCO V-660)[45]. […] The peptide solutions were incubated at 4 ℃ for 3, 6, or 12 h and then at 60 ℃ for 1.5 h to separate into the lower coacervation phase from the upper equilibrium solution phase. After incubation, the peptide solution was immediately centrifuged at room temperature for 2 min (6,200 rpm) to remove aggregates. An aliquot of 333 µL of supernatant of the equilibrium solution phase was added to 600 µL of acetate buffer solution (pH5.4) including 67 μM of XO and incubated for 10 min. Subsequently, the concentrations of Cd^2+ or Zn^2+ were determined by measuring the absorbance at 575 nm or 550 nm, respectively, which corresponds to the absorbance of the metal-XO complex. The amount of metal ions absorbed in the peptide solution was determined by the calibration line, which was prepared in the same manner by using a series of standard CdCl2 or ZnCl2 aqueous solutions of known concentrations. The homogeneity of variances between the concentration of each metal ion in the supernatant and the control solution was confirmed using the F test. The statistical significance of the difference between the concentration of each metal ion in the supernatant and the control solution was determined using the Student's t-test. Results were considered statistically significant at P values of ≤ 0.01.

[3] = Turbidity measurement of AADAAC-(FPGV)4 in Tris-HCl buffer pH 8.4 with or without CdCl2 / NaCl; type: physicochemical; conditions: for Tt: turbidity at 400 nm, mean ± SE, at least three measurements
Experimental: This hexapeptide sequence strongly and selectively binds to cadmium above pH 6.0, whereas this peptide releases metal ions below pH 4.0[51]. […] To assess the self-assembly property, turbidity measurements of AADAAC-(FPGV)4 were carried out under the same conditions as described above (Table 2 and Fig. 8). First, AADAAC-(FPGV)4 was dissolved to a concentration of 10 mg/mL in Tris–HCl buffer (pH 8.4) instead of phosphate buffer (pH 7.4), considering its use as a metal scavenging agent under basic conditions. Under these conditions, the Tt of AADAAC-(FPGV)4 was 41.6 ± 1.0 ℃ at a peptide concentration of 10 mg/mL. Since Tt tended to increase with the proportion of hydrophilic residues in the peptide, the self-assembling ability of AADAAC-(FPGV)4 was weakened compared with that of (FPGV)4, owing to the presence of hydrophilic Asp and Cys residues in the AADAAC sequence conjugated to (FPGV)4[34]. On the other hand, in the presence of Cd^2+, AADAAC-(FPGV)4 was insoluble in the solution. Therefore, the binding of the AADAAC sequence to Cd^2+ ions was thought to contribute to the enhanced self-assembly of AADAAC-(FPGV)4 in the presence of the metal ions. […] This characteristic of AADAAC-(FPGV)4 was similar to that of AADAAC-(FPGVG)4, which we previously reported. Subsequently, to verify whether this peptide can be used as a metal recovery agent at a lower peptide concentration, turbidity measurement using a low-concentration peptide solution (0.5 mg/mL, 0.236 mM) was performed. […] Thus, turbidity was measured in Tris–HCl buffer (50.0 mM Tris, 0.236 mM CdCl2, pH 8.4) containing 0.9% NaCl (154 mM, equivalent to saline), because it has been reported that salts such as NaCl increase the self-association and decrease the Tt of ELPs[52]. […] Owing to this drastic change in water solubility in the presence and absence of cadmium ions, AADAAC-(FPGV)4 was considered to be useful as a Cd^2+-selective metal-scavenging agent.
Turbidity measurements were performed in accordance with previous reports. The temperature-dependent self-assembling properties of the ELP analogues were evaluated using a JASCO V-660 spectral photometer (JASCO Co., Tokyo, Japan). Peptide sample solutions of different concentrations (2.0, 5.0, 10, 20, 30, or 50 mg/mL) were prepared by dissolving each peptide (except for AADAAC-(FPGV)n) in phosphate buffer (27.4 mM Na2HPO4, 17.8 mM NaH2PO4, pH 7.4). […] Turbidity was measured at 400 nm with increasing or decreasing temperature at a rate of 0.5 ℃/min from 5 ℃. The concentration of each sample solution was measured at least three times. […]

[4] = Colorimetric (xylenol orange) determination of Zn^2+ removal by peptide coacervation; conditions: peptide 1.0 mg/mL, mean ± SE
Experimental: as §1, with “The homogeneity of variances between the concentration of each metal ion in the supernatant and the control solution was confirmed using the F test.” left out, “Results were considered statistically significant at P values of ≤ 0.01.” left out

[5] = Turbidity measurement (phase transition temperature Tt, coacervation) in phosphate buffer pH 7.4; type: physicochemical; conditions: turbidity at 400 nm, heating 0.5 ℃/min from 5 ℃, mean ± SE, at least three measurements
Experimental: Turbidity measurements were performed in accordance with previous reports. The temperature-dependent self-assembling properties of the ELP analogues were evaluated using a JASCO V-660 spectral photometer (JASCO Co., Tokyo, Japan). Peptide sample solutions of different concentrations (2.0, 5.0, 10, 20, 30, or 50 mg/mL) were prepared by dissolving each peptide (except for AADAAC-(FPGV)n) in phosphate buffer (27.4 mM Na2HPO4, 17.8 mM NaH2PO4, pH 7.4). AADAAC-(FPGV)4 was dissolved in Tris–HCl buffer solution (50.0 mM Tris, at pH 8.4 or 50.0 mM Tris, 154 mM NaCl, at pH 8.4) to prepare sample solutions of a concentration of 0.5 or 10 mg/mL in the absence or presence of the equimolar amount of CdCl2. Turbidity was measured at 400 nm with increasing or decreasing temperature at a rate of 0.5 ℃/min from 5 ℃. The concentration of each sample solution was measured at least three times. The self-assembling property was described by the phase transition temperature (Tt), which is the temperature at which the turbidity of the solution reaches half the maximum value.

[6] = Dynamic light scattering (DLS) size distribution of coacervates; type: physicochemical; conditions: 10 to 50 ℃ in 10 ℃ steps; phosphate buffer pH 7.4; peptide concentrations as in Fig. 3 (2.0-50 mg/mL)
Experimental: The distribution of the particle size in the truncated ELP analogue solution was analyzed via DLS using Zetasizernano ZS (Malvern Instruments Ltd., Worcestershire, U.K.) in a measurement cell ZEN0112 (Malvern Instruments Ltd.)[33]. Peptide samples of different concentrations (2.0, 10, 20, 30, or 50 mg/mL) were prepared by dissolving each peptide in phosphate buffer (27.4 mM Na2HPO4, 17.8 mM NaH2PO4, pH 7.4) and filtered using the Millex-LG filter (pore size 0.2 µm, Merck Millipore) before measurement. DLS analysis was performed by increasing the temperature at 10 ℃ intervals from 10 to 50 ℃. Measurement duration was selected automatically. Parameter dataset “protein” (dataset: refractive index, 1.450; absorption, 0.001) was used as the material parameter, and parameter dataset “water” (dataset: refractive index, 1.330; viscosity, 0.8872) was chosen as the dispersant parameter. Attenuation was selected automatically. Each concentration was measured at least three times.

[7] = Time-lapse thioflavin T (ThT) fluorescence assay; type: physicochemical; conditions: peptide 10 mg/mL; phosphate buffer pH 7.4; 15, 30 and 45 ℃; excitation 446 nm, emission 483 nm
Experimental: Thiofalvin T (ThT) fluorescence measurements were performed for (FPGVG)5, (FPGVG)4, (FPGV)5, and (FPGV)4. Each peptide was dissolved in phosphate buffer (27.4 mM Na2HPO4, 17.8 mM NaH2PO4, pH 7.4) to different concentrations (1.0 mg/mL for (FPGV)5, 5.0 mg/mL for (FPGVG)5 and (FPGV)4, and 10 mg/mL for (FPGVG)4, respectively). Then, 1 mM of ThT aqueous solution was added to each sample at a final ThT concentration of 25 μM) followed by incubation for 1 h at 4 °C. The fluorescence intensity was measured using a FP-8500 spectrofluorometer (JASCO Co.). The excitation was set at 446 nm and the emission was recorded at 483 nm. The fluorescence intensities of samples were monitored at 15 °C for 30 min. Then, the sample temperature was raised to 30 °C and the measurements were performed for another 30 min. The same measurement was also carried out at 45 °C for (FPGV)4.

[8] = Optical microscopy of peptide aggregates with image analysis of particle size; type: physicochemical; conditions: peptide 10 mg/mL, phosphate buffer pH 7.4
Experimental: The morphology of the coacervates of (FPGVG)4, (FPGV)4, and (FPG)4 was observed using optical microscopy. Light field observation was performed using a Leica DM IL LED microscope (Leica Microsystems CMS, Wetzlar, Germany) equipped with HI PLAN 40 × (Leica Microsystems CMS) and HC PLAN 10 × (Leica Microsystems CMS) objectives. Each peptide was dissolved in phosphate buffer (27.4 mM Na2HPO4, 17.8 mM NaH2PO4, at pH 7.4) to a concentration of 10 mg/mL and applied on a glass slide. Sample imaging was performed below and above the Tt of each peptide using a Thermo Plate TP-CHSQM (Tokai Hit Co., Ltd., Shizuoka, Japan). Sample images above Tt were taken 3 min after the sample reached the target temperature. The details of the image analysis is shown in the Supplementary Information file.
Size distribution of coacervates of ELP analogues formed above the Tt was analyzed using optical microscopy images of each peptide. Image analysis was performed using Image J/Fiji (NIH, USA), an open-source image analysis software.^2 Spatial calibration was carried out using […] in original images. The images of peptide coacervates were converted to a binary image via the menu command Image > Type > 8-bit. Using "analyze particle" command, the Feret diameters of the particles within the image were measured.

Substance | UPLC retention time (measure of hydrophobicity) [1] [min] | Concentration of metal ion in the supernatant ([2]; incubation 3 h at 4 ℃ then 60 ℃ 1.5 h, xylenol orange absorbance 575 nm) [ppm] | Concentration of metal ion in the supernatant ([2]; incubation 6 h at 4 ℃ then 60 ℃ 1.5 h) [ppm] | Concentration of metal ion in the supernatant ([2]; incubation 12 h at 4 ℃ then 60 ℃ 1.5 h) [ppm] | Removal efficiency ([2]; incubation 6 h) [%] | Removal efficiency ([2]; incubation 12 h) [%] | Cd^2+ concentration remaining in the supernatant ([2]; incubation for 12 h at 4 ℃ before heating) [%] | Tt ([3]; peptide 0.5 mg/mL (0.236 mM), Tris-HCl buffer (50.0 mM Tris, pH 8.4) with 154 mM NaCl and 0.236 mM CdCl2 (equimolar)) [°C] | Coacervation (in words) ([3]; peptide 0.5 mg/mL (0.236 mM), Tris-HCl buffer (50.0 mM Tris, pH 8.4) with 154 mM NaCl, absence of Cd^2+) | Tt / solubility in the presence of Cd^2+ ([3]; peptide 10 mg/mL (4.71 mM), Tris-HCl buffer (50.0 mM Tris, pH 8.4) with 4.71 mM CdCl2) | Tt ([3]; peptide 10 mg/mL (4.71 mM), Tris-HCl buffer (50.0 mM Tris, pH 8.4), no additive, 0.5 ℃/min) [°C] | Concentration of metal ion in the supernatant ([4]; Zn^2+ (0.236 mM ZnCl2), incubation 12 h at 4 ℃ then 60 ℃ 1.5 h, Tris-HCl (50.0 mM Tris, 599 mM NaCl, pH 8.0), xylenol orange absorbance 550 nm, at least three measurements) [ppm] | Removal efficiency ([4]; Zn^2+, incubation 12 h, versus control without peptide) [%] | Tt, phase transition temperature ([5]; peptide 5.0 mg/mL, phosphate buffer pH 7.4, half-maximal turbidity) [°C] | Tt, phase transition temperature ([5]; peptide 10 mg/mL, phosphate buffer (27.4 mM Na2HPO4, 17.8 mM NaH2PO4, pH 7.4), Tt = temperature at half-maximal turbidity) [°C] | Temperature-dependent particle size by DLS (in words) [6] | ThT fluorescent intensity versus temperature (in words) [7] | Morphology of aggregates (optical microscopy, in words) [8] | Particle size of coacervates (optical microscopy image analysis, Feret diameter) ([8]; above Tt ((FPGVG)4 40 °C, (FPGV)4 25 °C), ImageJ/Fiji)
AADAACFPGVFPGVFPGVFPGV-NH2 [AADAAC-(FPGV)4, H-AADAAC-(FPGV)4-NH2] | 2.496 | 6.8 ± 0.11 | 2.5 ± 0.49 | 1.3 ± 0.046 | 90.9 ± 0.018 | 95.1 ± 0.002 | 4.9 | 13.8 ± 0.1 | did not show coacervation | insoluble; also recorded: Not dissolved | 41.6 ± 1.0 | 4.4 ± 0.008 | 75.3 ± 0.001 | – | – | – | – | – | –
FPGVGFPGVGFPGVGFPGVG-NH2 [(FPGVG)4, reference compound] | 2.251 | – | – | – | – | – | – | – | – | – | – | – | – | 47.5 ± 0.3 | 33.8 ± 0.3 | formed sub-micron particles below Tt, which grew into micrometer-sized particles above Tt | significantly elevated at 45 °C | spherical aggregates | about 1 µm
